Measured values taken from US4740233A, “Substituted 1,2,4-triazolo[1,5-a]-pyrimidine-2-sulfonamides and compositions and methods of controlling undesired vegetation and suppressing the nitrification of ammonium nitrogen in soil” (The Dow Chemical Company, priority 1986, dated 1988).

Assays:
Test in all cases: Preemergent control of plant species
[1] = test system: rice; type: in vivo, Oryza sativa; settings: Oryza sativa, pre-emergence, 336 h; 0.25 lb/acre; read-out: percent preemergent control
Method in brief: (§1)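 Seeds sown in agricultural soil in greenhouse beds, then aqueous-emulsion compositions applied uniformly to the bed surface at listed rates. Beds kept two weeks under greenhouse growth conditions with watering. Control expressed as growth reduction versus water-treated beds of the same species.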

[2] = test system: velvetleaf; type: in vivo, Abutilon theophrasti; settings: Abutilon theophrasti, pre-emergence, 336 h; 0.25 lb/acre; read-out: percent preemergent control
Method in brief: as §1

[3] = test system: corn; type: in vivo, Zea mays; settings: Zea mays, pre-emergence, 336 h; 0.25 lb/acre; read-out: percent preemergent control
Method in brief: as §1

[4] = test system: soybean; type: in vivo, Glycine max.; settings: Glycine max, pre-emergence, 336 h; 0.25 lb/acre; read-out: percent preemergent control
Method in brief: as §1

[5] = test system: wild oats; type: in vivo; settings: Avena fatua, pre-emergence, 336 h; 0.25 lb/acre; read-out: percent preemergent control
Protocol: The seeds of various species of plants were planted in beds of good agricultural soil in a greenhouse. A number of compositions of the present invention, generally in the nature of an aqueous emulsion, were applied at rates listed in the table so as to deposit a predetermined amount of active ingredients uniformly throughout the surface of the bed. Another seed bed was treated only with water to serve as a control. After treatment the seed beds were maintained for two weeks under greenhouse conditions conducive for good plant growth and watered as necessary. Control refers to the reduction in growth compared to the observed results of the same untreated species.

[6] = test system: cotton; type: in vivo, Gossypium spp.; settings: Gossypium hirsutum, pre-emergence, 336 h; 0.25 lb/acre; read-out: percent preemergent control
Method in brief: as §1

[7] = test system: barnyardgrass; type: in vivo, Echinochloa crusgalli; settings: Echinochloa crus-galli, pre-emergence, 336 h; 0.25 lb/acre; read-out: percent preemergent control
Method in brief: as §1

[8] = test system: rape; type: in vivo, Brassica napus; settings: Brassica napus, pre-emergence, 336 h; 0.25 lb/acre; read-out: percent preemergent control
Method in brief: as §1

[9] = test system: wheat; type: in vivo, Triticum aestivum; settings: Triticum aestivum, pre-emergence, 336 h; 0.25 lb/acre; read-out: percent preemergent control
Method in brief: as §1

[10] = test system: jimsonweed; type: in vivo, Datura stramonium; settings: Datura stramonium, pre-emergence, 336 h; 0.25 lb/acre; read-out: percent preemergent control
Method in brief: as §1

[11] = test system: sugar beet; type: in vivo, Beta saccharifera; settings: Beta vulgaris, pre-emergence, 336 h; 0.25 lb/acre; read-out: percent preemergent control
Method in brief: as §1

[12] = test system: yellow foxtail; type: in vivo, Setaria lutescens; settings: Setaria, pre-emergence, 336 h; 0.25 lb/acre; read-out: percent preemergent control
Method in brief: as §1

[13] = test system: johnson grass; type: in vivo, Sorghum halepense; settings: Sorghum halepense, pre-emergence, 336 h; 0.25 lb/acre; read-out: percent preemergent control
Method in brief: as §1

[14] = test system: annual morning glory; type: in vivo, Ipomoea spp.; settings: Ipomoea, pre-emergence, 336 h; 0.25 lb/acre; read-out: percent preemergent control
Method in brief: as §1

[15] = test system: yellow nutsedge; type: in vivo, Cyperus esculentus; settings: Cyperus, pre-emergence, 336 h; 0.25 lb/acre; read-out: percent preemergent control
Method in brief: as §1

[16] = test system: sorghum; type: in vivo, Sorghum vulgare; settings: Sorghum, pre-emergence, 336 h; 0.25 lb/acre; read-out: percent preemergent control
Method in brief: as §1

SMILES | plant injury at 280.212 g/ha [1] | pest or weed control at 280.212 g/ha [2] | plant injury at 280.212 g/ha [3] | plant injury at 280.212 g/ha [4] | pest or weed control at 280.212 g/ha [5] | plant injury at 280.212 g/ha [6] | pest or weed control at 280.212 g/ha [7] | plant injury at 280.212 g/ha [8] | plant injury at 280.212 g/ha [9] | pest or weed control at 280.212 g/ha [10] | plant injury at 280.212 g/ha [11] | pest or weed control at 280.212 g/ha [12] | pest or weed control at 280.212 g/ha [13] | pest or weed control at 280.212 g/ha [14] | pest or weed control at 280.212 g/ha [15] | plant injury at 280.212 g/ha [16]
Cc1ccn2nc(S(=O)(=O)N(C(=O)CCCl)c3c(F)cccc3F)nc2n1 [Compound 282] | 100% | 100% | 95% | 50% | 100% | 100% | 70% | 100% | 70% | 100% | 100% | 100% | 100% | 80% | 100% | 100%
Cc1ccn2nc(S(=O)(=O)N(C(=O)c3ccccc3)c3c(Cl)cccc3Cl)nc2n1 [Compound 274, 5-methyl-N-benzoly-N-(2,6-dichlorophenyl)-1,2,4-triazolo[1,5-a]pyrimidine-2-sulfonamide] | 80% | 100% | 60% | 0% | 0% | 95% | 80% | 100% | 0% | 90% | 100% | 95% | 70% | 80% | 100% | 90%
COC(=O)c1cccc(F)c1NS(=O)(=O)c1nc2nc(OC)c(C)cn2n1 [Compound 215] | 100% | 100% | 100% | 100% | 100% | 100% | 100% | 100% | 100% | 100% | 100% | 100% | 100% | 100% | 100% | 100%
Cc1ccn2nc(S(=O)(=O)N(C(=O)C=Cc3ccccc3)c3c(F)cccc3F)nc2n1 [Compound 293] | 90% | 100% | 60% | 10% | 95% | 100% | 100% | 100% | 60% | 100% | 100% | 100% | 95% | 70% | 100% | 100%
CCOC(=O)N(c1c(Cl)cccc1Cl)S(=O)(=O)c1nc2nc(C)ccn2n1 [Compound 272] | 30% | 100% | 0% | 0% | 0% | 80% | 60% | 100% | 0% | 90% | 100% | 90% | 40% | 40% | 100% | 40%
